Results published in article PMC8145704, “Conformational Plasticity of Hepatitis B Core Protein Spikes Promotes Peptide Binding Independent of the Secretion Phenotype” (Microorganisms, 2021).
Entries after “also recorded” stand apart in the source; their conditions may differ. Read-outs that look alike come from different tables or passages of the source. Ends that are not written are not given here.

How the values were obtained:
[1] = for solubility (soluble up to): no buffer stated at this place, peptides were dissolved in ITC dialysis buffer, pH 7.5
[2] = biological target: T1, WT-HBc capsids (hepatitis B core protein) (Hepatitis B virus genotype D subtype ayw, UniProt P03146); type: binding, Hepatitis B virus (genotype D; strain ayw); details: for KD: N-terminally unmodified, terminally amidated peptides, dnb = did not bind HBc, SLLGRM fitted with stoichiometry fixed to 0.25
T1 construct: these predictions are also valid for full-length variants with randomly packaged host–RNA; made in house; host or cells: E. coli BL21 (DE3) Star

[3] = biological target: P5T-HBc capsids (Hepatitis B virus genotype D subtype ayw, UniProt P03146, P5T); experiment: Isothermal titration calorimetry (ITC) of peptide binding to P5T-HBc capsids; set-up: species or system Hepatitis B virus (genotype D; strain ayw); details: 20 °C, ITC buffer 2, mean ± SD of 6 repeats
[4] = biological target: L60V-HBc capsids (Hepatitis B virus genotype D subtype ayw, UniProt P03146, L60V); experiment: Isothermal titration calorimetry (ITC) of peptide binding to L60V-HBc capsids; set-up: species or system Hepatitis B virus (genotype D; strain ayw); details: 20 °C, ITC buffer 2, stoichiometry fixed to 0.5, mean ± SD of 3 repeats
[5] = biological target: F97L-HBc capsids (Hepatitis B virus genotype D subtype ayw, UniProt P03146, F97L); experiment: Isothermal titration calorimetry (ITC) of peptide binding to F97L-HBc capsids; set-up: species or system Hepatitis B virus (genotype D; strain ayw); details: 20 °C, ITC buffer 2, mean ± SD of 5 repeats
[6] = test system: WT-HBc capsids; details: GRMKG added at 10-fold molar excess; SLLGRM sample taken at the end of the ITC experiment (more than 95% of binding sites occupied)
[7] = ITC, 37 °C, ITC buffer 1, single repeat, ± fit error
[8] = ITC, 20 °C, ITC buffer 2, mean ± SD of 6 repeats
[9] = ITC, 20 °C, ITC buffer 2, single repeat, ± fit error

## CSCC[C@H](NC(=O)[C@H](CCCNC(=N)N)NC(=O)CNC(=O)[C@H](CC(C)C)NC(=O)[C@H](CC(C)C)NC(=O)[C@H](CO)NC(=O)[C@H](CCCNC(=N)N)NC(=O)[C@H](Cc1c[nH]cn1)NC(=O)[C@@H](N)CCSC)C(=O)N[C@@H](CCCCN)C(=O)NCC(=O)N[C@@H](C)C(N)=O [P1]
[1]
  solubility (soluble up to): up to 8 mM
[2]; ITC, 37 °C, ITC buffer 1, single repeat
  ∆ST: -2.5 kcal/mol
[2]; [7]
  Ratio Peptide/HBc: 0.45 ± 0.02
  ∆H: -9.0 ± 0.6 kcal/mol
[2]; in words, endothermic contribution at higher P1 concentrations in ITC (37 °C, ITC buffer 1) attributed to aggregation
  aggregation of HBc capsids caused by the peptide: aggregation of P1 and capsids; also recorded: causes aggregation of HBc capsids

## CSCC[C@H](NC(=O)[C@H](CCCNC(=N)N)NC(=O)CNC(=O)[C@H](CC(C)C)NC(=O)[C@H](CC(C)C)NC(=O)[C@H](CO)NC(=O)CN)C(=O)N[C@@H](CCCCN)C(=O)NCC(=O)N[C@@H](C)C(N)=O [P2]
[1]; P2 compared with the longer P1
  solubility compared with the other peptide, in words: better soluble
[1]
  solubility (soluble up to): up to 8 mM
[3]
  ∆H: -7.7 ± 0.8 kcal/mol
  ∆ST: -2.1 ± 0.9 kcal/mol
[4]
  ∆H: -6.6 ± 1.2 kcal/mol
  ∆ST: -1.4 ± 1.3 kcal/mol
[2]; [8]
  ∆H: -14.4 ± 1.6 kcal/mol
  ∆ST: -8.8 ± 1.6 kcal/mol
[5]
  ∆H: -9.9 ± 1.0 kcal/mol
  ∆ST: -4.7 ± 0.9 kcal/mol

## GRMKG
[2]; [9]
  KD: no measurable affinity and dnb
[6]
  association of peptide with capsids in the cryo-EM map: no association

## SLKGRM
[2]; [9]
  KD: no binding detected and dnb

## SLLGEM
[2]; [9]
  KD: no binding detected and dnb

## SLLGRM-NH2 [SLLGRM]
[2]; ITC, 20 °C, ITC buffer 2, stoichiometry fixed to 0.25, single repeat
  ∆ST: -3.2 kcal/mol
[2]; ITC, 20 °C, ITC buffer 2, stoichiometry fixed to 0.25, single repeat, ± fit error
  ∆H: -8.3 ± 0.2 kcal/mol
[6]
  association of peptide with capsids in the cryo-EM map: only the CD spikes bound
